Assay results taken from paper PMC8143291, “Cytotoxicity and Microbicidal Activity of Commonly Used Organic Solvents: A Comparative Study and Application to a Standardized Extract from Vaccinium macrocarpon” (Toxics, 2021).

Experiments:
P. aeruginosa ATCC 27853 = assay: Broth microdilution MIC/MBC; assay type: cell-based, Pseudomonas aeruginosa; details: 24 h exposure; v/v; n = 3
Text: (§1) The bacterial strains used for AST of the solvents included: Staphylococcus aureus (ATCC 29213), Staphylococcus aureus—MRSA (NBIMCC 8327—resistant to methicillin and oxacillin, National Bulgarian Collection for Industrial Microorganisms and Cell Cultures, Sofia, Bulgaria), Streptococcus pyogenes (SAIMC 10535, Collection of the Stephan Angeloff Institute of Microbiology, Sofia, Bulgaria), Enterococcus faecalis (ATCC 29212), Escherichia coli (ATCC 35218), Pseudomonas aeruginosa (ATCC 27853), and Yersinia enterocolitica (IP864 O:3, Collection of Institut Pasteur, Paris, France). The selected strains are the most often investigated ones in the AST research studies in correspondence with the standard ISO 20776-1 Part 1: Reference method for testing the in vitro activity of antimicrobial agents against rapidly growing aerobic bacteria involved in infectious diseases. The antimycotic activity was tested on Candida albicans (CBS 562, Utrecht, The Netherlands). The strains S. aureus, MRSA, E. coli and E. faecalis were grown on Mueller–Hinton broth/agar (MHB/MHA); S. pyogenes, P. aeruginosa, Y. enterocolitica and C. albicans were grown on brain heart infusion (BHI) broth/agar; E. coli was also grown on Luria–Bertani broth/agar (LBB/LBA).
(§2) The minimum inhibitory concentration (MIC) for each solvent was estimated by the broth microdilution method (BMD) in 96-well microplates, following ISO 20776/1-2006 [3] and CLSI protocols. Briefly, a standardized bacterial inoculum was prepared from each bacterial species by suspending 3–4 colonies from a pure culture into 4 mL sterile saline. The turbidity of the inocula was adjusted to McFarland 0.5 (1.0 × 10^8 CFU/mL, λ = 600 nm), and 50 µL were resuspended in 10 mL of the appropriate culture medium for each strain. The bacterial inocula were added to microtiter trays containing equivalent volumes of medium loaded with the relevant solvent in concentrations varying from 0.025 to 25% volume fraction. The final volume of each sample was 100 µL/well. The plates were incubated at 37 °C for 24 h. The pure culture medium served as a negative control. Every MIC was evaluated visually as the lowest concentration without visible growth. […] MBC was defined as the lowest compound’s concentration reducing the colony growth of the initial bacterial inoculum by ≥ 99.9%.

S. pyogenes SAIMC 10535 = assay: Broth microdilution MIC/MBC; assay type: cell-based, Streptococcus pyogenes; details: 24 h exposure; v/v; n = 3
Text: as §1, §2

E. faecalis ATCC 29212 = assay: Broth microdilution MIC/MBC; assay type: cell-based, Enterococcus faecalis; details: 24 h exposure; v/v; n = 3
Text: as §1, §2

[1] = system: Y. enterocolitica IP 864 O: 3; assay: Broth microdilution MIC/MBC; assay type: cell-based, Yersinia enterocolitica; details: 24 h exposure; v/v; n = 3
Text: as §1, §2

[2] = system: S. Aureus MRSA NBIMCC 8327; assay: Broth microdilution MIC/MBC; assay type: cell-based, Staphylococcus aureus; details: 24 h exposure; v/v; n = 3
Text: as §1, §2

S. Aureus ATCC 29213 = assay: Broth microdilution MIC/MBC; assay type: cell-based, Staphylococcus aureus; details: 24 h exposure; v/v; n = 3
Text: as §1, §2

[3] = system: HaCaT (immortalized human keratinocytes); assay: MTT dye-reduction cytotoxicity assay (ISO 10993-5); assay type: cell-based; details: solvent alone, n = 3; for MTC (maximum tolerated concentration): 72 h, at least 70% of cells viable; for IC50 (CI 95%): 72 h incubation
Text: The cell lines utilized in this study included the human tumor lines A-375 (malignant melanoma) and A-431 (non-melanoma epidermoid squamous skin carcinoma) as well as the models for non-tumorigenic cells—HaCaT (immortalized human keratinocytes) and CCL-1^TM (transformed mouse fibroblasts, NCTC clone 929). The first three cell lines were obtained from CLS Cell Lines Service (GmbH, Eppelheim, Germany). CCL-1^TM was purchased from the American Type Culture Collection (ATCC, Manassas, VA, USA). Cells were maintained in a controlled environment—sterile cell culture flasks in a CO2 incubator Panasonic MCO-18AC (Panasonic Healthcare co., ltd, Oizumi-Machi, Japan) at 37 °C and a humidified atmosphere containing 5% CO2. CCL-1 was cultured in MEM with 10% heat-inactivated horse serum and 2 mM L-glutamine, and the cell culture medium for the rest of the cell lines was DMEM-HG with 4.5 g/L glucose with the addition of 10% heat-inactivated fetal bovine serum and 4 mM L-glutamine. Pen/strep (concentration of penicillin G sodium 10^5 Units/L and of streptomycin sulfate 100 mg/L) was added to both culture media. The cell lines were maintained as an adherent monolayer in a log phase. The cells were sub-cultivated about 1–3 times per week after the monolayer reached 80–90% confluence. The medium was removed from the flask, and the cell monolayer was washed with 3–5 mL PBS. The cells were incubated with 0.05% EDTA in PBS for 8–10 min, followed by the next step where all cell lines were subjected to enzyme cell detachment. HaCaT and CCL-1 monolayers were detached with 1 mL solution of trypsin/EDTA (0.1%/0.05% for HaCaT and 0.25% (w/v)/0.53 mM for CCL-1) and incubated for 2–5 min at 37 °C (for HaCaT) or at room temperature (for CCL-1 cells), whereas Accutase® was used for A-375 and A-431 lines. The incubation lasted until the separation and dispersion of the cells in the monolayer were observed using light microscopy. In the end, all cell lines were resuspended in 10 mL medium and centrifuged for 3 min at 300× g. The cell pellet was resuspended in fresh medium and sub-cultivated at a seeding density of 1.0 × 10^4 cells/cm^2.
The MTT test was performed in order to determine the median inhibitory (IC50) and MTC concentrations of the solvents and PAC according to Annex C, ISO 10993-5 [2, 21]. Briefly, 100 µL of the cell suspension (1 × 10^5 cells/mL) were seeded per well in 96-well plates with a flat bottom. The cells were incubated for 24 h, allowing them to enter the log phase of their growth. On the 24th hour, the cells were treated with the solvents or CystiCran® solutions in concentrations ranging between 0.004% and 2% volume fraction (v/v) and incubated further for 72 h. The incubation periods are following the recommendations of the FDA guide for the use of ISO 10993-1 [1]. At the end of the incubation period, 10 µL of an MTT solution (5 mg/mL) were added to each well, and the plates were kept at 37 °C for 2 hours. Thereafter, the medium was aspirated, and the formed formazan crystals were dissolved in 100 μL/well of 2-propanol supplemented with 5% formic acid. The same solvent was used as a blank. Untreated cells were considered as a negative control. […] The absorption was measured at 540 nm (reference filter at 690 nm) on a microplate reader ELx800 (BioTek Instruments, Inc., Winooski, VT, Winooski, VT, USA).
The IC50 values from the MTT assay were evaluated with a non-linear regression analysis (Curve fit, GraphPad Prizm 6.01 software, GraphPad Software Inc., San Diego, CA, USA) using sigmoidal concentration–response curves. The cell viability is presented as a percentage of the untreated control. At least four wells were seeded for every concentration. Three independent assays were performed (n = 3).

Row | Compound | MBC (P. aeruginosa ATCC 27853) [%] | MIC (P. aeruginosa ATCC 27853) [%] | MBC (S. pyogenes SAIMC 10535) [%] | MIC (S. pyogenes SAIMC 10535) [%] | MBC (E. faecalis ATCC 29212) [%] | MIC (E. faecalis ATCC 29212) [%] | MBC [1] [%] | MIC [1] [%] | MBC [2] [%] | MIC [2] [%] | MBC (S. Aureus ATCC 29213) [%] | MIC (S. Aureus ATCC 29213) [%] | MTC (maximum tolerated concentration) [3] | IC50 (CI 95%) [3]
1 | polyethylene glycol of average molecular weight 400 [PEG-400] | >25 | 25 | >25 | 25 | >25 | 25 | 12.5 | 12.5 | 25 | 25 | >25 | >25 | 0.41 % (v/v) | –
2 | CCO [EtOH, ethanol] | >25 | >25 | >25 | >25 | >25 | >25 | >25 | >25 | >25 | >25 | >25 | >25 | > 2 % (v/v) | > 2 % (v/v)
3 | C[S+](C)[O-] [DMSO, dimethyl sulfoxide] | >25 | 6.25 | >25 | 12.5 | >25 | 12.5 | 6.25 | 3.125 | >25 | 25 | >25 | 25 | – | 1.25 % (v/v)
